Measured values as given in US8816085B2 (Takeda GmbH, priority 2009, dated 2014).

Each compound was assayed against T1, PDE5A1 (human PDE5 from platelets) (Homo sapiens, UniProt O76074) (assay: Inhibition of type 5 phosphodiesterase (PDE5) activity, modified SPA test). Settings: PDE5-containing human platelet lysate, 0.5 μM cGMP, value classes, read-out: PDE5A1 inhibitory values [measured as −logIC50 (mol/l)] (converted).
T1 construct: from tissue; host or cells: platelets from fresh blood of human donors (10,000 g supernatant of sonified platelets)
Type: biochemical
Summary of the method: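 Enzyme source: human platelet lysate (10,000 g supernatant), with 1 μM motapizone and 10 nM PDE2 inhibitor present. SPA format in 20 mM Tris pH 7.4, 5 mM Mg2+, 0.5 μM cGMP with [3H]cGMP tracer; 5 min preincubation at 37 °C, 15 min reaction, stopped with IBMX-containing beads. IC50 by non-linear regression.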

SMILES | IC50
Cc1[nH]c2c(-c3ccc(F)cc3OCC3CC3)ccnc2c1C(=O)N[C@H]1CC[C@@H](NC(=O)[C@H](C)O)CC1 [Example F11, 7-[2-(Cyclopropylmethoxy)-4-fluorophenyl]-N-(cis-4-{[(2S)-2-hydroxypropanoyl]amino}cyclohexyl)-2-methyl-1H-pyrrolo[3,2-b]pyridine-3-carboxamide] | 1 to 10 nM
Cc1ccc(OCC2CC2)c(-c2ccnc3c(C(=O)N[C@H]4CC[C@@H](NC(=O)[C@H](C)O)CC4)c(C)[nH]c23)c1 [Example F39, 7-[2-(Cyclopropylmethoxy)-5-methylphenyl]-N-(cis-4-{[(2S)-2-hydroxypropanoyl]amino}cyclohexyl)-2-methyl-1H-pyrrolo[3,2-b]pyridine-3-carboxamide] | 1 to 10 nM
CCC(=O)N1C[C@@H](O)[C@H](NC(=O)c2c(C)[nH]c3c(-c4cc(OC)c(F)cc4OCC4CC4)ccnc23)C1 (relative stereo) [Example E71, 7-[2-(Cyclopropylmethoxy)-4-fluoro-5-methoxyphenyl]-N-[(3R*,4R*)-4-hydroxy-1-propanoylpyrrolidin-3-yl]-2-methyl-1H-pyrrolo[3,2-b]pyridine-3-carboxamide] | < 1 nM
CCC(=O)N[C@H]1CC[C@@H](NC(=O)c2c(C)[nH]c3c(-c4c(OCC5CC5)ccc5c4OCO5)ccnc23)CC1 [Example E07, 7-[5-(Cyclopropylmethoxy)-1,3-benzodioxol-4-yl]-2-methyl-N-[cis-4-(propionylamino)cyclohexyl]-1H-pyrrolo[3,2-b]pyridine-3-carboxamide] | < 1 nM
Cc1[nH]c2c(-c3cc(F)ccc3OCC3CC3)ccnc2c1C(=O)N[C@@H]1CCN(C(=O)CO)C[C@H]1O (relative stereo) [Example F18, 7-[2-(Cyclopropylmethoxy)-5-fluorophenyl]-N-[rel.(3R,4R)-3-hydroxy-1-(hydroxyacetyl)piperidin-4-yl]-2-methyl-1H-pyrrolo[3,2-b]pyridine-3-carboxamide] | 1 to 10 nM
COc1ccc(OCC2CC2)c(-c2ccnc3c(C(=O)NC4CN(C(=O)C(C)O)CC4O)c(C)[nH]c23)c1 (mixture of isomers) [Example F33, Diastereomeric mixture of 7-[2-(Cyclopropylmethoxy)-5-methoxyphenyl]-N-{(3R*,4R*)-4-hydroxy-1-[(2S)-2-hydroxypropanoyl]pyrrolidin-3-yl}-2-methyl-1H-pyrrolo[3,2-b]pyridine-3-carboxamide and Diastereomeric mixture of 7-[2-(cyclopropylmethoxy)-5-methoxyphenyl]-N-{(3S*,4S*)-4-hydroxy-1-[(2S)-2-hydroxypropanoyl]pyrrolidin-3-yl}-2-methyl-1H-pyrrolo[3,2-b]pyridine-3-carboxamide] | 1 to 10 nM
Cc1ccc(OCC2CC2)c(-c2ccnc3c(C(=O)NC4CCN(C(=O)CO)CC4)c(C)[nH]c23)c1 [Example F34, 7-[2-(Cyclopropylmethoxy)-5-methylphenyl]-N-[1-(hydroxyacetyl)piperidin-4-yl]-2-methyl-1H-pyrrolo[3,2-b]pyridine-3-carboxamide] | 1 to 10 nM
COCC(=O)N1CCC(NC(=O)c2c(C)[nH]c3c(-c4ccc(F)cc4OCC4CC4)ccnc23)CC1 [Example E12, 7-[2-(Cyclopropylmethoxy)-4-fluorophenyl]-N-[1-(methoxyacetyl)piperidin-4-yl]-2-methyl-1H-pyrrolo[3,2-b]pyridine-3-carboxamide] | 1 to 10 nM
COc1ccc(OCC2CC2)c(-c2ccnc3c(C(=O)NC4CCN(C(=O)CO)CC4)c(C)[nH]c23)c1 [Example F26, 7-[2-(Cyclopropylmethoxy)-5-methoxyphenyl]-N-[1-(hydroxyacetyl)piperidin-4-yl]-2-methyl-1H-pyrrolo[3,2-b]pyridine-3-carboxamide] | 1 to 10 nM
CCC(=O)N1C[C@@H](O)[C@H](NC(=O)c2c(C)[nH]c3c(-c4cc(OC)ccc4OCC4CC4)ccnc23)C1 (relative stereo) [Example E50, 7-[2-(Cyclopropylmethoxy)-5-methoxyphenyl]-N-[(3R*,4R*)-4-hydroxy-1-propanoylpyrrolidin-3-yl]-2-methyl-1H-pyrrolo[3,2-b]pyridine-3-carboxamide] | 1 to 10 nM

Other lines, results leading:

IC50 | SMILES
< 1 nM | CCC(=O)N[C@H]1CC[C@H](NC(=O)c2c(C)[nH]c3c(-c4cc(F)c(OC)cc4OCC4CC4)ccnc23)CC1 [Example E80, 7-[2-(Cyclopropylmethoxy)-5-fluoro-4-methoxyphenyl]-2-methyl-N-[trans-4-(propionylamino)cyclohexyl]-1H-pyrrolo[3,2-b]pyridine-3-carboxamide]
< 1 nM | COCC(=O)N[C@H]1CC[C@H](NC(=O)c2c(C)[nH]c3c(-c4cc(OC)c(F)cc4OCC4CC4)ccnc23)CC1 [Example E66, 7-[2-(Cyclopropylmethoxy)-4-fluoro-5-methoxyphenyl]-N-{trans-4-[(methoxyacetyl)amino]cyclohexyl}-2-methyl-1H-pyrrolo[3,2-b]pyridine-3-carboxamide]
< 1 nM | COc1ccc(OCC2CC2)c(-c2ccnc3c(C(=O)N[C@H]4CC[C@@H](NC(=O)[C@H](C)O)CC4)c(C)[nH]c23)c1 [Example F31, 7-[2-(Cyclopropylmethoxy)-5-methoxyphenyl]-N-(cis-4-{[(2S)-2-hydroxypropanoyl]amino}cyclohexyl)-2-methyl-1H-pyrrolo[3,2-b]pyridine-3-carboxamide]
< 1 nM | COc1cc(-c2ccnc3c(C(=O)NC4CCN(C(C)=O)CC4)c(C)[nH]c23)c(OCC2CC2)cc1F [Example E61, N-(1-Acetylpiperidin-4-yl)-7-[2-(cyclopropylmethoxy)-4-fluoro-5-methoxyphenyl]-2-methyl-1H-pyrrolo[3,2-b]pyridine-3-carboxamide]
< 1 nM | COc1cc(OCC2CC2)c(-c2ccnc3c(C(=O)N[C@H]4CC[C@@H](NC(C)=O)CC4)c(C)[nH]c23)cc1F [Example E82, N-(cis-4-Acetamidocyclohexyl)-7-[2-(cyclopropylmethoxy)-5-fluoro-4-methoxyphenyl]-2-methyl-1H-pyrrolo[3,2-b]pyridine-3-carboxamide]
< 1 nM | CCC(=O)N[C@H]1CC[C@H](NC(=O)c2c(C)[nH]c3c(-c4cc(OC)c(F)cc4OCC4CC4)ccnc23)CC1 [Example E65, 7-[2-(Cyclopropylmethoxy)-4-fluoro-5-methoxyphenyl]-2-methyl-N-[trans-4-(propanoylamino)cyclohexyl]-1H-pyrrolo[3,2-b]pyridine-3-carboxamide]
< 1 nM | COCC(=O)N1C[C@@H](O)[C@H](NC(=O)c2c(C)[nH]c3c(-c4cc(OC)c(F)cc4OCC4CC4)ccnc23)C1 (relative stereo) [Example E72, 7-[2-(Cyclopropylmethoxy)-4-fluoro-5-methoxyphenyl]-N-[(3R*,4R*)-4-hydroxy-1-(methoxyacetyl)pyrrolidin-3-yl]-2-methyl-1H-pyrrolo[3,2-b]pyridine-3-carboxamide]
< 1 nM | COCC(=O)N[C@H]1CC[C@H](NC(=O)c2c(C)[nH]c3c(-c4cc(OC)ccc4OCC4CC4)ccnc23)CC1 [Example E45, 7-[2-(Cyclopropylmethoxy)-5-methoxyphenyl]-N-{trans-4-[(methoxyacetyl)amino]cyclohexyl}-2-methyl-1H-pyrrolo[3,2-b]pyridine-3-carboxamide]
1 to 10 nM | Cc1ccc(OCC2CC2)c(-c2ccnc3c(C(=O)N[C@H]4CC[C@H](NC(=O)CO)CC4)c(C)[nH]c23)c1 [Example F36, 7-[2-(Cyclopropylmethoxy)-5-methylphenyl]-N-{trans-4-[(hydroxyacetyl)amino]cyclohexyl}-2-methyl-1H-pyrrolo[3,2-b]pyridine-3-carboxamide]
< 1 nM | CCC(=O)N1CCC(NC(=O)c2c(C)[nH]c3c(-c4cc(OC)c(F)cc4OCC4CC4)ccnc23)CC1 [Example E62, 7-[2-(Cyclopropylmethoxy)-4-fluoro-5-methoxyphenyl]-2-methyl-N-(1-propanoylpiperidin-4-yl)-1H-pyrrolo[3,2-b]pyridine-3-carboxamide]
1 to 10 nM | Cc1[nH]c2c(-c3cc(F)ccc3OCC3CC3)ccnc2c1C(=O)N[C@H]1CC[C@@H](NC(=O)CO)CC1 [Example F16, 7-[2-(Cyclopropylmethoxy)-5-fluorophenyl]-N-{cis-4-[(hydroxyacetyl)amino]cyclohexyl}-2-methyl-1H-pyrrolo[3,2-b]pyridine-3-carboxamide]
< 1 nM | COCC(=O)N1CCC(NC(=O)c2c(C)[nH]c3c(-c4cc(OC)c(F)cc4OCC4CC4)ccnc23)CC1 [Example E63, 7-[2-(Cyclopropylmethoxy)-4-fluoro-5-methoxyphenyl]-N-[1-(methoxyacetyl)piperidin-4-yl]-2-methyl-1H-pyrrolo[3,2-b]pyridine-3-carboxamide]
< 1 nM | COc1cc(-c2ccnc3c(C(=O)NC4CCN(C(=O)[C@H](C)O)CC4)c(C)[nH]c23)c(OCC2CC2)cc1F [Example F41, 7-[2-(Cyclopropylmethoxy)-4-fluoro-5-methoxyphenyl]-N-{1-[(2S)-2-hydroxypropanoyl]piperidin-4-yl}-2-methyl-1H-pyrrolo[3,2-b]pyridine-3-carboxamide]
< 1 nM | CCC(=O)N[C@H]1CC[C@H](NC(=O)c2c(C)[nH]c3c(-c4ccc(OC)cc4OCC4CC4)ccnc23)CC1 [Example E35, 7-[2-(Cyclopropylmethoxy)-4-methoxyphenyl]-2-methyl-N-[trans-4-(propanoylamino)cyclohexyl]-1H-pyrrolo[3,2-b]pyridine-3-carboxamide]
< 1 nM | COc1cc(OCC2CC2)c(-c2ccnc3c(C(=O)NC4CCN(C(=O)[C@H](C)O)CC4)c(C)[nH]c23)cc1F [Example F51, 7-[2-(Cyclopropylmethoxy)-5-fluoro-4-methoxyphenyl]-N-{1-[(2S)-2-hydroxypropanoyl]piperidin-4-yl}-2-methyl-1H-pyrrolo[3,2-b]pyridine-3-carboxamide]
